By IC50 is commonly meant the concentration needed to halve the response being measured. A low value points to inhibition by little substance. As usually defined, the Kd is a measure of binding affinity in units of concentration. A lower Kd goes with higher affinity.

Our source for the IC50 and Kd values is ChEMBL document CHEMBL3822451, “Structure-based design and synthesis of small molecular inhibitors disturbing the interaction of MLL1-WDR5” (Eur J Med Chem, 2016).

The target in experiment [1] is T1, WD repeat-containing protein 5 (Homo sapiens, UniProt P61964). As to the kind of experiment: Inhibition of 10mer-Thr-FAM probe binding to His-tagged human WDR5 expressed in Escherichia coli incubated for 2 hrs by fluorescence polarization assay.
For experiment [2], the target named is T1, WD repeat-containing protein 5. As to the kind of experiment: Binding affinity to His-tagged human WDR5 expressed in Escherichia coli by isothermal titration calorimetry. (ITC needs no label: the signal is the heat of the interaction.)

The structures appear in SMILES notation.

With `CN1CCN(c2ccc([N+](=O)[O-])cc2C(=O)Nc2ccccc2Cl)CC1`, in experiment [1], the half-inhibitory concentration (IC50) is more than 20 µM.

In experiment [1], `Cc1c(F)ccc(C(=O)Nc2ccc(-c3ccc(C(=O)O)cc3)cc2N2CCN(C)CC2)c1Cl` yielded a concentration for half-maximal inhibition (IC50) of more than 20 µM.

Take `COc1ccc(S(=O)(=O)Nc2cc([N+](=O)[O-])ccc2N2CCN(C)CC2)cc1OC`: the IC50 in experiment [1] is more than 20 µM.

`CN1CCN(c2ccc([N+](=O)[O-])cc2NS(=O)(=O)c2ccc(F)cc2)CC1` returned an IC50 in experiment [1] of more than 20 µM.

With `Cc1c(F)ccc(C(=O)Nc2cc(-c3ccc(N)cc3)ccc2N2CCN(C)CC2)c1Cl`, in experiment [1], the IC50 was 0.206 µM.

Take `Cc1c(F)ccc(C(=O)Nc2ccc(-c3ccc(N)cc3)cc2N2CCN(C)CC2)c1Cl`: the IC50 in experiment [1] was more than 20 µM.

Turning to `COc1cccc(NC(=O)c2cc([N+](=O)[O-])ccc2N2CCN(C)CC2)c1`, the IC50 in experiment [1] is more than 20 µM.

In experiment [1], `Cc1c(F)c([N+](=O)[O-])cc(C(=O)Nc2cc(-c3ccccc3)ccc2N2CCN(C)CC2)c1Cl` displayed an IC50 of 0.207 µM.

Take `COc1ccc(S(=O)(=O)Nc2cc([N+](=O)[O-])ccc2N2CCN(C)CC2)cc1`: the IC50 in experiment [1] is more than 20 µM.

In experiment [1], `Cc1c(F)ccc(C(=O)Nc2cc(-c3ccncc3)ccc2N2CCN(C)CC2)c1Cl` gave an IC50 of 0.104 µM. The same compound had a Kd in experiment [2] of 0.133 µM.

The compound `Cc1c(F)ccc(C(=O)Nc2ccc(-c3ccncc3)cc2N2CCN(C)CC2)c1Cl` displayed an IC50 in experiment [1] of more than 20 µM.

With `Cc1c(F)ccc(C(=O)Nc2cc(-c3ccccc3)ccc2N2CCN(C)CC2)c1Cl`, the IC50 in experiment [1] was found to be 0.466 µM.

In turn, `CN1CCN(c2ccc([N+](=O)[O-])cc2C(=O)Nc2ccc(F)cc2F)CC1` yielded a concentration for half-maximal inhibition (IC50) in experiment [1] of more than 20 µM.

In turn, `Cc1c(F)ccc(C(=O)Nc2ccc(-c3ccc([N+](=O)[O-])cc3)cc2N2CCN(C)CC2)c1Cl` displayed an IC50 in experiment [1] of more than 20 µM.

`Cc1cc(C)c(S(=O)(=O)Nc2cc([N+](=O)[O-])ccc2N2CCN(C)CC2)c(C)c1` gave an IC50 in experiment [1] of more than 20 µM.

With `Cc1c(F)ccc(C(=O)Nc2cc(N)ccc2N2CCN(C)CC2)c1Cl`, the IC50 in experiment [1] is more than 20 µM.
